Like-named read-outs stand apart in the source and are kept apart here.

This assay concerns Vcap cells (androgen receptor (+) prostate cancer cells). Description: CTG cell proliferation assay (CellTiter-Glo). Conditions: for viability at 0.1 µM / viability at 1 µM / viability at 10 µM: Homo sapiens, VCaP, 120 h. In general terms: Cellular ATP, detected with luciferase, serves as a proxy for viable cell number.
[1] abbreviates: Table 4, tested compound alone, 1 μM.
Setting [2] is: read-out: Survival rate of Vcap cells, Table 10, tested compound alone, 0.1 μM.
Where [3] appears, read: read-out: Survival rate of Vcap cells, Table 10, tested compound alone, 1.0 μM.
The mark [4] stands for this setting: read-out: Survival rate of Vcap cells, Table 10, tested compound alone, 10 μM.
Where [5] appears, read: Table 10, tested compound 0.1 μM in combination with 1 μM B001.
The mark [6] stands for this setting: Table 10, tested compound 0.1 μM in combination with 1 μM K001.
[7] abbreviates: Table 10, tested compound 1.0 μM in combination with 1 μM B001.
[8] abbreviates: Table 10, tested compound 1.0 μM in combination with 1 μM K001.
[9] abbreviates: Table 10, tested compound 10 μM in combination with 1 μM B001.
Where [10] appears, read: Table 10, tested compound 10 μM in combination with 1 μM K001.
The mark [11] stands for this setting: read-out: Survival rate of Vcap cells, Table 5, tested compound alone, 0.1 μM.
The mark [12] stands for this setting: read-out: Survival rate of Vcap cells, Table 5, tested compound alone, 1.0 μM.
Setting [13] is: read-out: Survival rate of Vcap cells, Table 5, tested compound alone, 10 μM.
[14] abbreviates: Table 5, tested compound alone, 1.0 μM.

Description: In vitro test of the inhibition effect of the compound in combination with androgen receptor pathway modulators and the like on the prostate cancer cell proliferation.
The tested compounds were used alone or in combination with other androgen receptor pathway modulators respectively. […] After that, 100 μl of CellTiter-Glo® cell viability assay reagent (Promega, catalogue number G7570) was added to each well and mixed well on a vibrator for 10 minutes to induce cell lysis. The 96-well plate was placed at room temperature for 10 minutes, so as to stabilize its luminescence signal. A white bottom membrane was pasted on the bottom of the plate and the plate was tested using EnSpire.

As for `C[C@]12CC[C@H](O)CC1=CC[C@@H]1[C@@H]2CC[C@]2(C)C(n3cnc4ccccc43)=CC[C@@H]12` [Galeterone, reference compound], the “Survival rate of Vcap cells” value (Table 4, tested compound alone, 0.1 μM) was 95.9%; the “Survival rate of Vcap cells” value under setting [1] came to 62.8%; the “Survival rate of Vcap cells” value (Table 4, tested compound alone, 10 μM) is recorded as 19.3%.

Turning to `CC(O)(CS(=O)(=O)c1ccc(F)cc1)C(=O)Nc1ccc(C#N)c(C(F)(F)F)c1` (stereo not shown) [bicalutamide, reference compound], the viability at 0.1 µM under setting [2] worked out at 99.2%. Also, under setting [3], the viability at 1 µM was found to be 94%. The viability at 10 µM under setting [4] is 92%. Further, the “Survival rate of Vcap cells” value was 77.1% under setting [5]; 78.7% under setting [6]; 69.0% under setting [7]; 64.1% under setting [8]; 67.1% under setting [9]; 61.5% under setting [10].

In the case of `CC(=O)O[C@H]1CC[C@@]2(C)C(=CC[C@@H]3[C@@H]2CC[C@]2(C)C(c4cccnc4)=CC[C@@H]32)C1` [Abiraterone acetate, reference compound], the viability at 0.1 µM runs as follows: (read-out: Survival rate of Vcap cells, Table 4, tested compound alone, 0.1 μM) 106%; under setting [2], 96.1%. The viability at 1 µM worked out at 91.7% (read-out: Survival rate of Vcap cells, Table 4, tested compound alone, 1 μM) and 97% under setting [3]. Further, the viability at 10 µM is, setting by setting: (read-out: Survival rate of Vcap cells, Table 4, tested compound alone, 10 μM) 31.4%; under setting [4], 60.5%. The “Survival rate of Vcap cells” value is, setting by setting: under setting [1], 91.7%; under setting [5], 79.8%; under setting [7], 70.5%; under setting [9], 66.9%.

Take `[2H][C@]1(N2Cc3c(N)cccc3C2=O)CCC(=O)NC1=O` [B005]: the viability at 0.1 µM (read-out: Survival rate of Vcap cells, Table 9, tested compound alone, 0.1 μM) turned out to be 91.1%. For the same molecule, the viability at 1 µM (read-out: Survival rate of Vcap cells, Table 9, tested compound alone, 1.0 μM) amounted to 85%. The viability at 10 µM (read-out: Survival rate of Vcap cells, Table 9, tested compound alone, 10 μM) stood at 83.5%. In addition, the “Survival rate of Vcap cells” value is, setting by setting: (Table 9, tested compound 0.1 μM in combination with 1 μM ARN-509) 53.4%; (Table 9, tested compound 0.1 μM in combination with 1 μM Enzalutamide) 56.5%; (Table 9, tested compound 1.0 μM in combination with 1 μM ARN-509) 47.6%; (Table 9, tested compound 1.0 μM in combination with 1 μM Enzalutamide) 48.4%; (Table 9, tested compound 10 μM in combination with 1 μM ARN-509) 46.2%; (Table 9, tested compound 10 μM in combination with 1 μM Enzalutamide) 46.5%. Moreover, the Cell survival rate (notes of Table 9: 1.0 μM tested compound in combination with 1.0 μM Enzalutamide) was determined as 47.6%.

For the molecule `Nc1cccc2c1C(=O)N(C1CCC(=O)NC1=O)C2=O` (stereo not shown) [F001], under setting [11], the viability at 0.1 µM stood at 79.7%. For the same molecule, under setting [12], the viability at 1 µM was found to be 59.9%. In addition, the viability at 10 µM under setting [13] was 55.7%. Further, the “Survival rate of Vcap cells” value runs as follows: (Table 5, tested compound 0.1 μM in combination with 1 μM ODM-201) 49.4%; (Table 5, tested compound 1.0 μM in combination with 1 μM ODM-201) 40.9%; (Table 5, tested compound 10 μM in combination with 1 μM ODM-201) 37.3%; under setting [14], 59.9%.

Take `CC(O)c1cc(C(=O)N[C@@H](C)Cn2ccc(-c3ccc(C#N)c(Cl)c3)n2)[nH]n1` (stereo partly shown) [ODM-201, reference compound]: under setting [11], the viability at 0.1 µM turned out to be 90.7%. Moreover, under setting [12], the viability at 1 µM is 69%. Besides, under setting [13], the viability at 10 µM was 75.4%. For the same molecule, the “Survival rate of Vcap cells” value under setting [14] was 69.0%.

For `C[C@]12C=CC(=O)C=C1CC[C@@H]1[C@@H]2C(=O)C[C@@]2(C)[C@H]1CC[C@]2(O)C(=O)CO` [Prednisone, reference compound], under setting [2], the viability at 0.1 µM came to 99.1%. Moreover, the viability at 1 µM under setting [3] was 99.7%. Under setting [4], the viability at 10 µM amounted to 99.4%. The “Survival rate of Vcap cells” value is recorded as 87.6% under setting [5]; 91.5% under setting [6]; 78.7% under setting [7]; 74.2% under setting [8]; 73.8% under setting [9]; 68.0% under setting [10].

Turning to `C[C@](O)(COc1ccc(C#N)cc1)C(=O)Nc1ccc(C#N)c(C(F)(F)F)c1` [MK-2866, reference compound], the viability at 0.1 µM under setting [2] came out at 76.5%. In addition, under setting [3], the viability at 1 µM worked out at 77.4%. Moreover, the viability at 10 µM under setting [4] was found to be 69.4%. In addition, the “Survival rate of Vcap cells” value is given as 64.8% under setting [5], 65.6% under setting [7] and 57.8% under setting [9].

Values taken from US20240173312A1, “Pharmaceutical Composition Comprising a Benzoheterocyclic Compound and Androgen Receptor Pathway Modulator and Application Thereof” (KANGPU BIOPHARMACEUTICALS, LTD., priority 2015, published 2024).
